According to patent EP0135172A2, “Method for treatment of osteoporosis” (Takeda Chemical Industries, Ltd., priority 1983, dated 1985):

Legend:
[1] = system: young oophorectomized rats; experiment: Estrogenic activity (uterine wet weight) in young oophorectomized rats; format: in vivo, Sprague-Dawley rats
Protocol: Sprague-Dawley rats, 33 days old and 11 days after oophorectomy for elimination of endogenous estrogenic activity, were used in groups of 6 to 7 animals. Compound (I) was suspended in a 1% aqueous solution of hydroxypropylcellulose and administered orally for 3 days, while as a representative example of the conventional estrogen drug, estrone was dissolved in sesame oil and administered subcutaneously for 3 days. On the fourth day, each animal was autopsied and its uterine wet weight was recorded.
Sprague-Dawley rats, 33 days old and 11 days after oophorectomy for elimination of endogenous estrogenic activity, were used in groups of 7 animals. Compound (II) was suspended in a 1% aqueous solution of hydroxypropylcellulose and administered orally.

[2] = system: rat fetal long bone culture; experiment: Bone resorption inhibiting activity in rat fetal long bone culture (45Ca release, method of Raisz); format: cell-based, Sprague-Dawley rat; details: for ^45Ca (%) released: incubated 3 days, mean ± S.D. of six bones; for bone resorption: result in words, summary of Table 3
Protocol: Determination of bone resorption was performed by the method of Raisz [J. Clin. Invest. 44, 103-116 (1965)]. rhus, a Sprague-Dawley rat on the 19th day of pregnancy was subcutaneously injected with 50 p Ci of 45Ca (isotope of calcium, CaCl2 solution), and was laparotomized on the following day. The embryos were aseptically taken out, the forelimbs (radius and ulna) were cut off from the trunk under a binocular dissecting microscope, and the connective tissue and cartilage were removed as much as possible to prepare bone samples. Each bone sample was preincubated at 37°C for 24 hours in 0.6 mℓ of the medium containing 2 mg/mℓ of bovine serum albumin in BGJb medium (Fitton-Jackson modification) [GIBCO Laboratories, Grand Island, NY 14072 U.S.A.]. Then, the sample was further incubated for 3 days in the same medium as above in which 10 µg/mℓ or 25 µg/mℓ of compound (I) or 10 µg/mℓ of compound (II) had been incorporated. Then, the radioactivity of 45Ca in the medium and that of 45Ca in the bone were measured and the percentage (%) of ^45Ca released from the bone into the medium was calculated by the following formula.
Percentage (%) of 45 Ca released from bone into medium [formula]
As control, the bones of the embryos from the same litter were similarly incubated in the absence of compound (I) or (II) for 3 days.

[3] = system: rat fetal long bone culture; experiment: Inhibition of the bone resorption potentiating action of parathyroid hormone in rat fetal long bone culture; format: cell-based
Protocol: The bone samples prepared in the same manner as Test Example 3 were pre-incubated for 24 hours in the same medium as that prepared in Test Example 3 which contains bovine serum album in BGJb medium (Fitton-Jackson modification). Then, in the concomitant presence of PTH (parathyroid hormone, a bone resorption stimulant) and compound (II), the samples were further incubated for 3 days and the percentage of ^45Ca released into the medium was calculated by means of the same formula as that in Test Example 3. As control experiments, the same determination was made for a control group using the medium supplemented with PTH alone.

[4] = system: ICR mice; experiment: Acute toxicity in mice; format: in vivo; details: observed 14 days, LD50 could not be calculated
Protocol: (§1) Five-week-old ICR mice and 5-week-old Sprague-Dawley rats were respectively used in groups of 10 males and 10 females, and suspensions of compound (I) or compound (II) in olive oil were administered orally [2,500, 5,000 and 10,000 mg/kg of each compound] or subcutaneously [1,250, 2,500 and 5,000 mg/kg]. The animals were kept under observation for 14 days.

[5] = system: Sprague-Dawley rats; experiment: Acute toxicity in rats; format: in vivo; details: observed 14 days, LD50 could not be calculated
Protocol: as §1

[6] = orally 2,500, 5,000 and 10,000 mg/kg in olive oil
[7] = subcutaneously 1,250, 2,500 and 5,000 mg/kg in olive oil

O=c1c(-c2ccccc2)coc2cc(O)ccc12 [Compound (I), 7-hydroxy-isoflavone]
Uterine wet weight (mg ± S.D.) ([1]; daily dose 6.25 mg/kg orally for 3 days, control group 35.0 ± 1.0): 32.8 ± 1.1 mg | Uterine wet weight (mg ± S.D.) ([1]; daily dose 12.5 mg/kg orally for 3 days, control group 35.0 ± 1.0): 33.4 ± 0.9 mg | Uterine wet weight (mg ± S.D.) ([1]; daily dose 25 mg/kg orally for 3 days, control group 35.0 ± 1.0): 35.1 ± 0.8 mg | Uterine wet weight (mg ± S.D.) ([1]; daily dose 50 mg/kg orally for 3 days, control group 35.0 ± 1.0): 35.3 ± 1.7 mg | Uterine wet weight (mg ± S.D.) ([1]; daily dose 100 mg/kg orally for 3 days, control group 35.0 ± 1.0): 35.9 ± 1.0 mg | Uterine wet weight (mg ± S.D.) ([1]; daily dose 200 mg/kg orally for 3 days, control group 35.0 ± 1.0): 57.9 ± 1.0 mg | Uterine wet weight (mg ± S.D.) ([1]; daily dose 400 mg/kg orally for 3 days, control group 35.0 ± 1.0): 70.4 ± 6.7 mg | uterine weight increasing effect, dose-response curve ([1]; orally, daily dose levels of 200 mg/kg and 400 mg/kg): produced uterine weight increasing effect with a dose-response curve of moderate gradient | ^45Ca (%) released ([2]; 10 µg/mℓ, control group 20.6 ± 3.8): 16.5 ± 2.5 % | ^45Ca (%) released ([2]; 25 µg/mℓ, control group 20.6 ± 3.8): 13.5 ± 2.5 % | bone resorption [2]: suppressed bone resorption

C[C@]12CC[C@@H]3c4ccc(O)cc4CC[C@H]3[C@@H]1CCC2=O [Estrone, estrone, reference compound]
Uterine wet weight (mg ± S.D.) ([1]; daily dose 0.0025 mg/kg subcutaneously in sesame oil for 3 days, control group 35.0 ± 1.0): 101.7 ± 4.6 mg | Uterine wet weight (mg ± S.D.) ([1]; daily dose 0.005 mg/kg subcutaneously in sesame oil for 3 days, control group 35.0 ± 1.0): 159.8 ± 9.4 mg | Uterine wet weight (mg ± S.D.) ([1]; daily dose 0.01 mg/kg subcutaneously in sesame oil for 3 days, control group 35.0 ± 1.0): 223.3 ± 12.5 mg

O=c1c(-c2ccc(O)cc2)coc2cc(O)ccc12 [Compound (II), 7,4'-dihydroxy-isoflavone]
^45Ca (%) released ([3]; 10 µg/ml in concomitant presence of PTH, incubated 3 days, control group (PTH alone) 30.8±4.3): 23.5±3.4 % | PTH-stimulated bone resorption ([3]; result in words, summary of Table 4): suppressed PTH-stimulated bone resorption | Uterine wet weight (mg ± S.D.) ([1]; Test Example 2, daily dose 6.25 mg/kg orally, control group 31.1 ± 1.1): 33.2 ± 0.8 mg | Uterine wet weight (mg ± S.D.) ([1]; Test Example 2, daily dose 25 mg/kg orally, control group 31.1 ± 1.1): 32.8 ± 1.0 mg | Uterine wet weight (mg ± S.D.) ([1]; Test Example 2, daily dose 100 mg/kg orally, control group 31.1 ± 1.1): 35.3 ± 1.3 mg | Uterine wet weight (mg ± S.D.) ([1]; Test Example 2, daily dose 400 mg/kg orally, control group 31.1 ± 1.1): 62.3 ± 6.0 mg | uterine weight increasing activity ([1]; orally, dose level of 400 mg/kg): showed mild uterine weight increasing activity | deaths and toxic symptoms [4, 6]: None of the groups showed deaths nor toxic symptoms | deaths and toxic symptoms [4, 7]: None of the groups showed deaths nor toxic symptoms | ^45Ca (%) released ([2]; 10 µg/mℓ, control group 19.9 ± 5.0): 15.9 ± 1.3 % | bone resorption [2]: suppressed bone resorption | deaths and toxic symptoms [5, 6]: None of the groups showed deaths nor toxic symptoms | deaths and toxic symptoms [5, 7]: None of the groups showed deaths nor toxic symptoms
